From US20210276971A1, “TRIAZAMACROCYCLE-DERIVED CHELATOR COMPOSITIONS FOR COORDINATION OF IMAGING AND THERAPY METAL IONS AND METHODS OF USING SAME” (The Research Foundation for The State University of New York, priority 2018, published 2021) come the findings set out here.

Data set [1] in a line: HPLC check of interconversion of metal-complex diastereomers. It counts as physicochemical. Conditions: HPLC-separated peaks of Sc(III)/Lu(III) complexes, reinjected. As for the experimental part:
FIG. 13: Sc-Overlay and Lu-Overlay—A stock solution of PICAGA (2 mg/mL) in DI water was prepared. 1.1 equivalents of metal added to the ligand. ScCl3.6H2O or Lu(ClO4)3.6H2O. pH was adjusted to 6-7 with 5 M NaOH. Complex solutions were injected on HPLC. Each peak associated with the PICAGA (5.7 and 5.9 min) was collected and reinjected at 20 min.
A direct DO3A-monoamide DUPA conjugate analogue was also synthesized. The fully assembled conjugates DOTA-DUPA and picaga-DUPA were fully deprotected and characterized using ^1H-, ^13C-NMR and mass spectrometry. Following complete characterization, the non-radioactive scandium complexes were formed and characterized using HPLC-analysis. As the glutarate arm is introduced as the pure S-entantiomer, where the alpha carbon retains the chiral alpha carbon and subsequently introduces chirality to the ligand.

Data set [2] in a line: Plasma stability of ^44Sc complexes (37° C.). Particulars: for % complex stability: Rat Plasma, 37°. Type of data set: in vitro ADME, Rat.
Data set [3] in a line: EDTA challenge of ^44Sc complexes (10× excess EDTA, 37° C.). It counts as physicochemical. Particulars: for % complex stability: EDTA, 10× eq, 37° C.; for kinetic inertness (transchelation): presence of 10×EDTA. Here is the method: Challenge experiments. To measure relative complex stability, 10 uL of ligand solution at 100000 ng/mL was added to 100 uL EDTA to produce 10× excess EDTA. Mixtures were incubated at 37° C. for 1 h. To evaluate plasma stability, 10 uL of ligand solution at 100000 ng/mL added to 50 uL mouse plasma. Incubated at 37° C. for 1 h. Tubes were intermittently vortexed and 2 uL was removed at the designated timepoints and spotted onto TLC plates.

For `O=C(O)CC[C@H](NC(=O)N[C@@H](CCC(=O)NCCCCCNC(=O)CCC(C(=O)O)N1CCN(CC(=O)O)CCN(Cc2cccc(C(=O)O)n2)CC1)C(=O)O)C(=O)O` (stereo in doubt) [PICAGA, 2-{3-[(R)-1-Carboxy-4-[5-(4-carboxy-4-{7-(carboxymethyl)-4-[(6-carboxy-2-pyridyl)methyl]-1,4,7-triazonan-1-yl}butyrylamino)pentylamino]-4-oxobutyl]ureido}glutaric acid], the “interconversion of complex diastereomers” value in data set [1] was “limited interconversion”; in data set [1] (listed as picaga-DUPA), “do not interconvert even after 12 hours”.

Consider `O=C(O)CN1CCN(Cc2cccc(C(=O)O)n2)CCN(Cc2cccc(C(=O)O)n2)CC1` [NO1A2PIC], for which the “% complex stability” value in data set [2] (t = 10 min) was found to be 98.9 ± 0.3%; in data set [2] (t = 30 min), 98.3 ± 0.1%; in data set [2] (t = 60 min), 97.4 ± 0.4%; in data set [3] (t = 0) it was 90.2%; in data set [3] (t = 10 min) it was 77.4 ± 5.2%; in data set [3] (t = 30 min) it was 67.8 ± 0.9%. The “% complex stability” value in data set [3] (t = 60 min) came to 51.5 ± 0.4%. In addition, the “kinetic inertness (transchelation)” value in data set [3] is listed as “diminished complex inertness”.

On to `O=C(O)CN1CCN(CC(=O)O)CCN(CC(=O)O)CCN(CC(=O)O)CC1` [DOTA, reference compound], for which the “% complex stability” value in data set [2] (t = 10 min) amounted to 74.8 ± 1.8%; in data set [2] (t = 30 min) it was 74.4 ± 0.7%; in data set [2] (t = 60 min) it was 75.5 ± 0.9%; in data set [3] (t = 0), 9.41%; in data set [3] (t = 10 min), 74.4 ± 0.4%; in data set [3] (t = 30 min) it was 73.3 ± 0.5%. Further, the “% complex stability” value in data set [3] (t = 60 min) was determined as 74.7 ± 0.4%.

For the compound `O=C(O)CN1CCN(CC(=O)O)CCN(Cc2cccc(C(=O)O)n2)CC1` [MONOPIC, 6-{[4,7-Bis(carboxymethyl)-1,4,7-triazonan-1-yl]methyl}-2-pyridinecarboxylic acid], the “% complex stability” value in data set [2] (t = 10 min) was determined as 90.1 ± 0.8%; in data set [2] (t = 30 min) it was 91.0 ± 0.2%; in data set [2] (t = 60 min), 91.6 ± 0.3%; in data set [3] (t = 0), 91.4%; in data set [3] (t = 10 min) it was 91.5 ± 0.8%; in data set [3] (t = 30 min) it was 91.4 ± 0.8%. Moreover, the “% complex stability” value in data set [3] (t = 60 min) is listed as 90.5 ± 0.6%. Moreover, the “kinetic inertness (transchelation)” value in data set [2] (rat plasma) and in data set [3] was “no detectable transchelation” throughout.
